Where a name gives a salt, the structure may show the parent alone.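 Cultured in 96-well plates, cells were exposed to test compound for 48 hours across five concentrations. GI50 = concentration required for 50% inhibition of growth.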 Activity calls are given as the source filed them. No stated cut-off is given here; in the data, active = GI50 up to about 1.1 µM and inactive = higher.
Columns and labels:
Assay in all cases: DTP human tumour cell line panel, 48 h
UACC-62 = test system: UACC-62
HCT-15 = test system: HCT-15
SF-539 = test system: SF-539
KM12 = test system: KM12
A498 = test system: A498
UO-31 = test system: UO-31
MDA-MB-435 = test system: MDA-MB-435
SK-MEL-28 = test system: SK-MEL-28
HT-29 = test system: HT-29
LOX IMVI = test system: LOX IMVI
Malme-3M = test system: Malme-3M
OVCAR-5 = test system: OVCAR-5
SK-MEL-5 = test system: SK-MEL-5
CAKI-1 = test system: CAKI-1
DU-145 = test system: DU-145
U-251 = test system: U-251
CCRF-CEM = test system: CCRF-CEM
SN12C = test system: SN12C
NCI-H522 = test system: NCI-H522
MDA-N = test system: MDA-N

Row | Structure (SMILES) | GI50 (UACC-62) | GI50 (HCT-15) | GI50 (SF-539) | GI50 (KM12) | GI50 (A498) | GI50 (UO-31) | GI50 (MDA-MB-435) | GI50 (SK-MEL-28) | GI50 (HT-29) | GI50 (LOX IMVI) | GI50 (Malme-3M) | GI50 (OVCAR-5) | GI50 (SK-MEL-5) | GI50 (CAKI-1) | GI50 (DU-145) | GI50 (U-251) | GI50 (CCRF-CEM) | GI50 (SN12C) | GI50 (NCI-H522) | GI50 (MDA-N)
1 | Cc1c2ccccc2c(/C=N/NC(=O)CSCC(=O)N/N=C/c2c3ccccc3c(C)c3ccccc23)c2ccccc12 | > 64.7 µM (inactive) | > 100 µM | 18.1 µM (inactive) | > 56.4 µM (inactive) | 21.7 µM (inactive) | > 84.1 µM (inactive) | > 79.6 µM (inactive) | > 60.7 µM (inactive) | > 39.3 µM (inactive) | > 57.4 µM (inactive) | 37 µM (inactive) | 38.9 µM (inactive) | 54.7 µM (inactive) | > 67.1 µM (inactive) | > 55.8 µM (inactive) | 29.6 µM (inactive) | 34.2 µM (inactive) | 61.2 µM (inactive) | – | –
2 | CCN(CC)c1ccc2c(c1)N=C1N=CC=CN1C2(c1ccc(N(C)C)cc1)c1ccc(N(C)C)cc1 | 10.7 µM (inactive) | 10.9 µM | 14.6 µM (inactive) | 4.42 µM (inactive) | 17.5 µM (inactive) | 7.48 µM (inactive) | – | 10.8 µM (inactive) | 3.12 µM (inactive) | 5.25 µM (inactive) | 12.7 µM (inactive) | 13.3 µM (inactive) | 11.9 µM (inactive) | 11.1 µM (inactive) | – | 4.32 µM (inactive) | 8.55 µM (inactive) | 5.27 µM (inactive) | 1.74 µM (inactive) | –
3 | N=c1oc2ccc([N+](=O)[O-])cc2cc1C(=O)NCc1ccccc1 | 20.2 µM (inactive) | 17.8 µM | 17.7 µM (inactive) | 14.3 µM (inactive) | – | 18 µM (inactive) | 23.1 µM (inactive) | 20.3 µM (inactive) | 18.5 µM (inactive) | 17.7 µM (inactive) | 13.5 µM (inactive) | 32.9 µM (inactive) | 18.7 µM (inactive) | 19.2 µM (inactive) | 33 µM (inactive) | 28 µM (inactive) | 27 µM (inactive) | 19.9 µM (inactive) | 12.8 µM (inactive) | –
4 | Cn1c(=O)c2nc(/N=N/Nc3nncs3)[nH]c2n(C)c1=O | > 100 µM (inactive) | > 100 µM | > 100 µM (inactive) | > 100 µM (inactive) | > 100 µM (inactive) | > 100 µM (inactive) | > 100 µM (inactive) | > 100 µM (inactive) | > 100 µM (inactive) | > 100 µM (inactive) | – | > 100 µM (inactive) | > 100 µM (inactive) | > 100 µM (inactive) | > 100 µM (inactive) | > 100 µM (inactive) | > 100 µM (inactive) | > 100 µM (inactive) | – | –
5 | COC(=O)/C=C(\C)CC/C=C(\C)CCC(O)C(C)(C)O (stereo not drawn) | 25.1 µM (inactive) | 23.3 µM | 18.7 µM (inactive) | 13.9 µM (inactive) | 33 µM (inactive) | 39.2 µM (inactive) | – | 17.9 µM (inactive) | 31.4 µM (inactive) | 16.2 µM (inactive) | 17.5 µM (inactive) | 60.4 µM (inactive) | 16.6 µM (inactive) | 20.4 µM (inactive) | – | 28.2 µM (inactive) | 15.5 µM (inactive) | 19.3 µM (inactive) | – | 23.8 µM (inactive)
6 | COC(=O)c1ccccc1/N=C/c1ccc(N(CCC#N)S(=O)(=O)c2ccccc2)cc1 | > 100 µM (inactive) | > 100 µM | > 100 µM (inactive) | > 100 µM (inactive) | > 100 µM (inactive) | > 100 µM (inactive) | – | > 100 µM (inactive) | > 100 µM (inactive) | > 100 µM (inactive) | > 100 µM (inactive) | > 100 µM (inactive) | > 100 µM (inactive) | > 100 µM (inactive) | – | > 100 µM (inactive) | > 100 µM (inactive) | > 100 µM (inactive) | > 100 µM (inactive) | –
7 | O=C(O)c1c2c(cc3c1CC1(Cc4ccccc4C1=O)C3)CCC2 (stereo not drawn) | 21.8 µM (inactive) | 14.8 µM | 29.7 µM (inactive) | 14.4 µM (inactive) | 33 µM (inactive) | 38 µM (inactive) | 3.69 µM (inactive) | 52 µM (inactive) | 14.8 µM (inactive) | 23.8 µM (inactive) | 16.5 µM (inactive) | 65.5 µM (inactive) | 19.6 µM (inactive) | 41.5 µM (inactive) | 64 µM (inactive) | 29 µM (inactive) | 9.91 µM (inactive) | 46.5 µM (inactive) | 22.1 µM (inactive) | –
8 | CCOC(=O)c1c(NC(=O)c2cccs2)sc2c1CCC2 | > 100 µM (inactive) | > 100 µM | > 100 µM (inactive) | > 100 µM (inactive) | > 100 µM (inactive) | > 100 µM (inactive) | – | – | > 100 µM (inactive) | – | – | > 100 µM (inactive) | > 100 µM (inactive) | > 100 µM (inactive) | > 100 µM (inactive) | – | > 100 µM (inactive) | > 100 µM (inactive) | – | > 100 µM (inactive)
9 | COc1cc2c(c(OC)c1OC)-c1ccc(SC)c(=O)cc1C(CC(=O)Oc1cccc(F)c1)C2 (stereo not drawn) | 0.111 µM (active) | 0.22 µM | 0.111 µM (active) | 0.13 µM (active) | 0.0545 µM (active) | 0.753 µM (active) | – | 0.621 µM (active) | 0.184 µM (active) | 0.197 µM (active) | 0.267 µM (active) | 4.55 µM (inactive) | 0.411 µM (active) | 1.35 µM (inactive) | – | 0.115 µM (active) | 0.228 µM (active) | 0.222 µM (active) | 0.102 µM (active) | –
10 | CCOc1ccc(/C=C\c2cc(OC)c(OC)c(OC)c2)cc1 | 0.01 µM (active) | 0.027 µM | 0.000102 µM (active) | 0.00703 µM (active) | 0.00124 µM (active) | 0.00041 µM (active) | – | 0.000235 µM (active) | 0.000131 µM (active) | 0.000291 µM (active) | 0.00139 µM (active) | 22.1 µM (inactive) | 0.012 µM (active) | 0.01 µM (active) | – | 0.000172 µM (active) | 0.01 µM (active) | 0.00129 µM (active) | < 0.0001 µM (active) | –
11 | CN(C)c1ccc(/C=C(\NC(=O)c2ccccc2)C(=O)NC(CC(=O)O)C(=O)O)cc1 (stereo not drawn) | 82 µM (inactive) | > 100 µM | > 100 µM (inactive) | 39.4 µM (inactive) | > 100 µM (inactive) | > 100 µM (inactive) | > 100 µM (inactive) | > 100 µM (inactive) | > 100 µM (inactive) | 86.3 µM (inactive) | – | > 100 µM (inactive) | 94.6 µM (inactive) | > 100 µM (inactive) | > 100 µM (inactive) | > 100 µM (inactive) | > 100 µM (inactive) | > 100 µM (inactive) | 17.7 µM (inactive) | –
12 | CNS(=O)(=O)NNS(=O)(=O)c1ccc2ccccc2c1 | > 100 µM (inactive) | > 100 µM | > 100 µM (inactive) | > 100 µM (inactive) | > 100 µM (inactive) | > 100 µM (inactive) | – | > 100 µM (inactive) | > 100 µM (inactive) | > 100 µM (inactive) | > 100 µM (inactive) | > 100 µM (inactive) | > 100 µM (inactive) | > 100 µM (inactive) | – | > 100 µM (inactive) | > 100 µM (inactive) | > 100 µM (inactive) | > 100 µM (inactive) | –
13 | CS(=O)(=O)c1ccc(COP(N)(=O)N(CCCl)CCCl)cc1 (stereo not drawn) | > 100 µM (inactive) | > 100 µM | > 100 µM (inactive) | > 100 µM (inactive) | > 100 µM (inactive) | > 100 µM (inactive) | – | > 100 µM (inactive) | > 100 µM (inactive) | > 100 µM (inactive) | > 100 µM (inactive) | > 100 µM (inactive) | > 100 µM (inactive) | > 100 µM (inactive) | – | > 100 µM (inactive) | > 100 µM (inactive) | > 100 µM (inactive) | > 100 µM (inactive) | –
14 | O=C1NC(c2ccccc2)(c2ccccc2)C(=O)N1CCCCCCN1C(=O)NC(c2ccccc2)(c2ccccc2)C1=O | 57.7 µM (inactive) | > 100 µM | 18.6 µM (inactive) | > 100 µM (inactive) | 25.5 µM (inactive) | > 100 µM (inactive) | – | 11 µM (inactive) | 45.8 µM (inactive) | 62.5 µM (inactive) | 22.5 µM (inactive) | > 100 µM (inactive) | 19.9 µM (inactive) | 48.5 µM (inactive) | – | 27.7 µM (inactive) | > 100 µM (inactive) | 58.1 µM (inactive) | 11.9 µM (inactive) | –
15 | CC(=O)OC1COC(n2c(=S)n(-c3ccccc3)c(=O)c3ccccc32)C(OC(C)=O)C1OC(C)=O (stereo not drawn) | 4.05 µM (inactive) | 6 µM | > 100 µM (inactive) | 29.2 µM (inactive) | > 100 µM (inactive) | 48.9 µM (inactive) | – | > 100 µM (inactive) | 85.3 µM (inactive) | 21.4 µM (inactive) | > 100 µM (inactive) | > 100 µM (inactive) | 98.2 µM (inactive) | 2.94 µM (inactive) | – | 78.5 µM (inactive) | 32.7 µM (inactive) | > 100 µM (inactive) | 35 µM (inactive) | –
16 | C#Cc1cccc(Nc2ncnc3cc(OCCOC)c(OCCOC)cc23)c1 [ERLOTINIB HYDROCHLORIDE] | < 0.01 µM (active) | 4.76 µM | 15.4 µM (inactive) | 18.2 µM (inactive) | – | 3.79 µM (inactive) | 4.06 µM (inactive) | > 100 µM (inactive) | 27.2 µM (inactive) | 4.34 µM (inactive) | – | > 100 µM (inactive) | 1.41 µM (inactive) | < 0.01 µM (active) | – | 29.4 µM (inactive) | > 100 µM (inactive) | < 0.01 µM (active) | – | 41 µM (inactive)

Source: ChEMBL document CHEMBL1201862, “PubChem BioAssay data set” (2004)
